Measured values from patent publication EP0318860B1, “Substituted alkylamine derivatives” (BANYU PHARMACEUTICAL CO., LTD., priority 1987, dated 1989).

Key:
[1] = tested on: cholesterol biosynthesis in the cultured Hep-G2 cells; experiment: Inhibitory activity on cholesterol biosynthesis in cultured cells ([14C] acetate incorporation); assay type: cell-based; conditions: HepG2; Human hepatoma (Hep-G2) cells, [14C] sodium acetate, 6 hours; read-out: 50% inhibitory concentration (IC₅₀)
Method: Human hepatoma (Hep-G2) cells were cultured in 10 cm² dishes until they formed a monolayer. One milliliter of the culture medium was replaced, and 1 µCi of [¹⁴C] sodium acetate and 1 microliter of a dimethyl sulfoxide solution of a test drug were added, and the cells were cultured at 37 °C in air containing 5 % of carbon dioxide for 6 hours.
After the cultivation, the medium was aspirated, and the cells were cooled with ice, and washed with Dulbecco's phosphate buffered saline solution. The resulting cells were scraped by a rubber policeman, and collected by centrifugation. The cells collected were dissolved in 400 microliters of 0.3N sodium hydroxide. A 200 microliters aliquot of the solution was used for extraction, and the remainder, for protein determination.
To 200 microliters of the extracted cells, 15 % ethanolic potassium hydroxide was added, and saponification was carried out at 75 °C for 1 hour. Water (1 ml) was then added, and the mixture was extracted with 2 ml of petroleum ether twice to remove non-saponified materials. The petroleum ether extracts were washed with 1 ml of water, and evaporated under a nitrogen stream. The residue was spotted on a pre-coated silica gel TLC plate using a small amount of chloroform, and developed with hexane/ethyl ether/acetic acid (85:15:4). Cholesterol and squalene portions on the TLC were detected with iodine, and the corresponding TLC portions were cut out. The TLC strips were immersed in a toluene-type scintillator, and radioactivity was counted by a liquid scintillation counter. The results were corrected by the amount of proteins measured by the method described in J. Biol. Chem., vol. 193, page 265, 1951. The 50 % inhibitory concentration (IC₅₀ value) of the compound of the invention on cholesterol biosynthesis in the cultured Hep-G2 cells was calculated.

rat squalene epoxidase = target: T1, rat squalene epoxidase (Rattus norvegicus, UniProt P52020); experiment: Squalene epoxidase inhibiting activity (3H-squalene to squalene-2,3-epoxide, solubilized liver microsome fraction); assay type: biochemical; conditions: 8 µM 3H-squalene, 37 °C, 30 minutes, read-out: 50 % inhibitory concentration (IC50)
T1 construct: Livers were extracted and homogenized; from tissue; host or cells: liver of SD-strain female rats; microsomes solubilized with 2 % Triton X-100, 105000 x g supernatant
T1 sequence (P52020 whole entry): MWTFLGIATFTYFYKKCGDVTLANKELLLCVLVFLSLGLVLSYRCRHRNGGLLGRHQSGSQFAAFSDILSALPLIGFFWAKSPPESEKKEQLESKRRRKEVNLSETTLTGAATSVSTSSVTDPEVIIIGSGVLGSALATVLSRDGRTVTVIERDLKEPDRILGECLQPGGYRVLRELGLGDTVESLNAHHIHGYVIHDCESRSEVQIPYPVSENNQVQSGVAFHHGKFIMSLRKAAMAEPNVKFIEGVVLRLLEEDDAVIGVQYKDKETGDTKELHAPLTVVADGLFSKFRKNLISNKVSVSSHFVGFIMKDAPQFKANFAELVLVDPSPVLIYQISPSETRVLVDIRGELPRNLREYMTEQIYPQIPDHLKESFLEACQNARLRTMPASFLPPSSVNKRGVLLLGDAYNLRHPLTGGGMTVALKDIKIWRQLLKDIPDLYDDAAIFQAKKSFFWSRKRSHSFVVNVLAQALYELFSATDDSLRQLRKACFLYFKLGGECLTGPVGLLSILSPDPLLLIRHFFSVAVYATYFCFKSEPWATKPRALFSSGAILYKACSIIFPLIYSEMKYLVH

cholesterol biosynthesis = experiment: Test on inhibition of cholesterol biosynthesis in vivo ([14C] acetate, plasma 14C-cholesterol); conditions: male SD rats, 100 mg/kg orally; for ¹⁴C-cholesterol: dpm of 14C-cholesterol present in 1 ml of the plasma; for Inhibition of cholesterol biosynthesis: test group compared with control group
Method: Male SD rats, 5 weeks of age, were used in the in vivo test. The rats were kept for 9 days in an environment of reversed light cycle (i.e., dark between 6:00 am and 6:00 pm). The rats were allowed to take a solid diet and water freely. The test drug was orally administered two hours before dark sixth hour when the cholesterol synthesis reached a maximum. Compounds 6 and 44 were administered as a suspension in a 0.5 % aqueous solution of methyl cellulose. Compound 45 was administered in a 0.5 % aqueous solution of methyl cellulose containing 5 % of dimethyl sulfoxide and 1 % Tween 80. The dose was 1 ml/100 g of body weight.
An equal volume of 0.5 % methyl cellulose was administered to a control group. One hour after administration of the test drug, [¹⁴C] sodium acetate (56 mCi/mmole) was intraperitoneally administered to the rats in a dose of 20 µCi/100 g of body weight. At dark sixth hour, a blood sample was obtained from the abdominal artery under ether anesthesia, and the plasma was separated by centrifugation.
Two milliliters of plasma was mixed with a 15 % methanolic potassium hydroxide and saponified by heating at 75 °C for 3 hours. The resulting sample was extracted with 2 ml of petroleum ether twice. The extracts were washed with 2 ml of distilled water, and finally evaporated under a nitrogen stream. The resulting residue was dissolved in a small amount of ethyl ether, and all the solution was spotted on a pre-coated silica gel TLC plate. The plate was developed with a solvent system composed of hexane/ethyl ether/acetic acid (85:15:4). Color formation was carried out by iodine, and the radioactivity of the cholesterol portion was measured by a liquid scintillation counter.
The results were expressed in dpm of the resulting ¹⁴C-cholesterol present in 1 ml of the plasma. The inhibition of cholesterol biosynthesis was calculated by comparing the amounts of ¹⁴C-cholesterol biosynthesized in the test group and that in the control group.

Trichophyton = experiment: Antimycotic activity test (Sabouraud's agar dilution, MIC); assay type: cell-based; conditions: 120 h, 28 °C for 5 days, read-out: MIC
Method: (§1) Each of the test fungi was cultured (Candida albicans was cultured overnight in Sabouraud broth; Trichophyton was inoculated in Sabouraud's agar and cultured for 2 days, after which the spores were harvested). Thereafter, one platinum loopful of Candida albicans or Trichophyton (10⁶ cells/ml for C. albicans; 10⁶ spores/ml for Trichophyton) was inoculated in Sabouraud's agar containing the test drug in various concentrations, and cultured (at 37 °C for 2 days for C. albicans; at 28 °C for 5 days for Trichophyton). Then, the minimum growth inhibition concentration (MIC) was measured. […]

Candida albicans = experiment: as above; assay type: cell-based; conditions: 48 h, C. albicans, 37 °C for 2 days, read-out: MIC
Method: as §1

Compound | IC50 [1] [nM] | IC50 (rat squalene epoxidase) [nM] | ¹⁴C-cholesterol (cholesterol biosynthesis) [dpm] | Inhibition of cholesterol biosynthesis (cholesterol biosynthesis) [%] | MIC (Trichophyton) [µg/mL] | MIC (Candida albicans) [µg/mL]
Cc1ccccc1COc1cccc(CN(C)C/C=C/C#CC(C)(C)C)c1.Cl [Compound 6, (E)-N-(6,6-dimethyl-2-hepten-4-ynyl)-N-methyl-3-(2-methylbenzyloxy)benzylamine hydrochloride] | 340 | 560 | 862±387 | 53 |  | 
CCN(C/C=C/C#CC(C)(C)C)Cc1cccc(OCc2ccccc2C)c1.Cl [Compound 44, (E)-N-(6,6-dimethyl-2-hepten-4-ynyl)-N-ethyl-3-(2-methylbenzyloxy)benzylamine hydrochloride] | 50 | 160 | 568±313 | 69 |  | 
CCCN(C/C=C/C#CC(C)(C)C)Cc1cccc(OCc2ccccc2C)c1.Cl [Compound 45, (E)-N-(6,6-dimethyl-2-hepten-4-ynyl)-N-propyl-3-(2-methylbenzyloxy)benzylamine hydrochloride] | 83 | 120 | 274±155 | 85 | > 100 | > 100
